Measurements as given in patent publication US10040781B2, “Tank-binding kinase inhibitor compounds” (Gilead Sciences, Inc., priority 2014, dated 2018).

Columns and labels:
TBK1 = TBK1 (Homo sapiens (Human), UniProt Q9UHD2); assay: TBK1 TR-FRET enzymatic assay;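 further: phosphorylation of a biotinylated Ser/Thr peptide by purified full-length recombinant TBK1, read by TR-FRET after 240 min at 25 °C, IC50 is the geometric mean of at least four runs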
Description: Enzymatic activity of IKKε and TBK1 was measured using a homogeneous time resolved fluorescence resonance energy transfer (TR-FRET) assay that monitors enzyme dependent phosphorylation of a biotinylated serine/threonine peptide substrate. […] TBK1 and IKKε were expressed and purified as full length recombinant proteins. Detection reagents for the assay were purchased from Cisbio. […] After an assay reaction time of 240 minutes at 25° C., reactions were terminated with EDTA.
All IC50 values represent geometric mean values of a minimum of four determinations.

hJAK2 = hJAK2 (Homo sapiens (Human), UniProt O60674); assay: hJAK2 LANCE TR-FRET enzymatic assay; format: biochemical; conditions: read-out: JAK2 IC50
Chain of hJAK2 (O60674 whole entry): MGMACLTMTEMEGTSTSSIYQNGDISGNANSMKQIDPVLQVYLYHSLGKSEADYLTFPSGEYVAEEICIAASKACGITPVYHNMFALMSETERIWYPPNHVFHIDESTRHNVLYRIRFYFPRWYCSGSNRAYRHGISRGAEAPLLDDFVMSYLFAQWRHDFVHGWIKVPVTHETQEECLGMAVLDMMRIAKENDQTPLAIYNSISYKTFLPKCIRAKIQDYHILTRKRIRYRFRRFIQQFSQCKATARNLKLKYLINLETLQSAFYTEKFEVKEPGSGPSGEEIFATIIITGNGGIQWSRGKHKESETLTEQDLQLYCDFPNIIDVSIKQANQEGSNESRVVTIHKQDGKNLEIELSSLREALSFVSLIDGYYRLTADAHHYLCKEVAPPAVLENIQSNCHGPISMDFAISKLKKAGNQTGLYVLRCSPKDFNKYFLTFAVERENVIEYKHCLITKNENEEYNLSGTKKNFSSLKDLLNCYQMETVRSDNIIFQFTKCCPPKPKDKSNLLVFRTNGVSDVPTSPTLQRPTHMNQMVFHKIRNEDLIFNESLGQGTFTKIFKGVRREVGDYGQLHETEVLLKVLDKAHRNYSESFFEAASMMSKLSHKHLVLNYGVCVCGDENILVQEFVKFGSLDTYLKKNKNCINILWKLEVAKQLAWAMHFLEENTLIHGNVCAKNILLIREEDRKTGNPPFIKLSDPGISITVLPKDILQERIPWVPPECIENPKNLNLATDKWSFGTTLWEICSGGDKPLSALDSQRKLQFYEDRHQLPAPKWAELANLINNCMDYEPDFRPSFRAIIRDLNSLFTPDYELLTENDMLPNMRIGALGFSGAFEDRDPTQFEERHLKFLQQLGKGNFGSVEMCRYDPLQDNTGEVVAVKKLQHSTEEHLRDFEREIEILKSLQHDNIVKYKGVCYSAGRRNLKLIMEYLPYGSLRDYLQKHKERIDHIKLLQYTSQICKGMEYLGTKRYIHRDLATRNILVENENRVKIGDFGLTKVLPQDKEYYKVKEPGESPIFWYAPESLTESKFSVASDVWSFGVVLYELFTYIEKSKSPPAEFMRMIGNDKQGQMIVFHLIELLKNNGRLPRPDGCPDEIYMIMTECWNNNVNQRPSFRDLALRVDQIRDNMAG

IKKε = IKKε (Homo sapiens (Human), UniProt Q14164); assay: IKKε TR-FRET enzymatic assay; format: biochemical; conditions: read-out: IKKe IC50
Chain of IKKε (Q14164 whole entry): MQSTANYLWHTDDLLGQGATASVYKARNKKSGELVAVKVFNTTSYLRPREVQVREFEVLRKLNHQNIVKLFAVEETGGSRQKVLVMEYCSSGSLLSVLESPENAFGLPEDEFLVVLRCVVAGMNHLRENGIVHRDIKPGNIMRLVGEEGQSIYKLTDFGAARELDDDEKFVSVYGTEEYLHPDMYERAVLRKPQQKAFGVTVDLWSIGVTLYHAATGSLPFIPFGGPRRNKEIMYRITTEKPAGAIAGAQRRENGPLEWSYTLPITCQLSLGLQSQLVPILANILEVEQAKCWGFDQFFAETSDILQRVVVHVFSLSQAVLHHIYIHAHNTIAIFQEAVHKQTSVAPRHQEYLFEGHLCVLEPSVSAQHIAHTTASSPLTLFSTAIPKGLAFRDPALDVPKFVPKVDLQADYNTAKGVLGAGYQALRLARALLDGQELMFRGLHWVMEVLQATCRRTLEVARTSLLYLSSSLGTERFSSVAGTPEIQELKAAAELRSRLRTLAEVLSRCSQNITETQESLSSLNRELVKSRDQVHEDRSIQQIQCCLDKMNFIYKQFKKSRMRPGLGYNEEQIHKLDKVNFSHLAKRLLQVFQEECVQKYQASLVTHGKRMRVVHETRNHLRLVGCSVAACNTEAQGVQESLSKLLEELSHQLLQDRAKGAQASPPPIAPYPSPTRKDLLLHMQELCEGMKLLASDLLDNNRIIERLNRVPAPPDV

Chain of TBK1 (Q9UHD2 whole entry): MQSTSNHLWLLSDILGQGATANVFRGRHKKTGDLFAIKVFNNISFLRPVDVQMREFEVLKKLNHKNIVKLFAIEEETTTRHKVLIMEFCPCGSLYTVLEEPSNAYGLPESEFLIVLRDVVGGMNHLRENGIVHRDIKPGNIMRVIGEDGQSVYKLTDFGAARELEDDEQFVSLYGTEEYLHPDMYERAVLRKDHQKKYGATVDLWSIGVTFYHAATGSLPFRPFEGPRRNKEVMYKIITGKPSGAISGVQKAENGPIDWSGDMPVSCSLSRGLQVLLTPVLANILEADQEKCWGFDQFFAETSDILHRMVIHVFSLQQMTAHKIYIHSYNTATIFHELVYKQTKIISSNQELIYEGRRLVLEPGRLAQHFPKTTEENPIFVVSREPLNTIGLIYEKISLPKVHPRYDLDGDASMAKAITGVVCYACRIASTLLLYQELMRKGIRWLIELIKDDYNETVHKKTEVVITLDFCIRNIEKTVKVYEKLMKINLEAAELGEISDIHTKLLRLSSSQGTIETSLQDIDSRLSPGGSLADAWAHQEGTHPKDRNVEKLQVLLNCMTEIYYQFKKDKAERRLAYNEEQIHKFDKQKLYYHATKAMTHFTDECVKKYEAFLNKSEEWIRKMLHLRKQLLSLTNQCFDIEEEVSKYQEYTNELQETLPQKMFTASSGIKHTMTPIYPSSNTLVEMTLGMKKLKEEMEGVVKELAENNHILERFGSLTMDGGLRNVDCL

| SMILES | IC50 (TBK1) | IC50 (hJAK2) | IC50 (IKKε) |
| --- | --- | --- | --- |
| C[C@H](O)C(=O)N1CCC(Oc2cc(C#N)cc(-c3ncnc(Nc4ccc(N5CCN(C6COC6)CC5)cc4)n3)c2)CC1 [Example 134, (S)-3-((1-(2-hydroxypropanoyl)piperidin-4-yl)oxy)-5-(4-((4-(4-(oxetan-3-yl)piperazin-1-yl)phenyl)amino)-1,3,5-triazin-2-yl)benzonitrile] | 520 nM | 371 nM | ≥ 1000 nM |
| N#Cc1cc(-c2ncnc(Nc3ccc(N4CCN(C5COC5)CC4)cc3)n2)ccc1O[C@H]1CCN(C(=O)c2cn[nH]c2Cl)C[C@H]1F [Example 136, 2-(((3R,4S)-1-(5-chloro-1H-pyrazole-4-carbonyl)-3-fluoropiperidin-4-yl)oxy)-5-(4-((4-(4-(oxetan-3-yl)piperazin-1-yl)phenyl)amino)-1,3,5-triazin-2-yl)benzonitrile] | 46 nM | 167 nM | 73 nM |
| N#Cc1cc(-c2ncnc(Nc3ccc(N4CCN(C5COC5)CC4)cc3)n2)ccc1O[C@H]1CCN(C(=O)c2cc[nH]c(=O)c2)C[C@H]1F [Example 137, 2-(((3R,4S)-3-fluoro-1-(2-oxo-1,2-dihydropyridine-4-carbonyl)piperidin-4-yl)oxy)-5-(4-((4-(4-(oxetan-3-yl)piperazin-1-yl)phenyl)amino)-1,3,5-triazin-2-yl)benzonitrile] | 19 nM | 207 nM | 32 nM |
| N#CCC(=O)N1CC[C@H](Oc2ccc(-c3ncnc(Nc4ccc(N5CCN(C6COC6)CC5)cc4)n3)cc2C#N)[C@H](F)C1 [Example 138, 2-(((3R,4S)-1-(2-cyanoacetyl)-3-fluoropiperidin-4-yl)oxy)-5-(4-((4-(4-(oxetan-3-yl)piperazin-1-yl)phenyl)amino)-1,3,5-triazin-2-yl)benzonitrile] | 2 nM | 146 nM | 2 nM |
| N#Cc1cc(-c2ncnc(Nc3ccc(N4CCN(C5COC5)CC4)cc3)n2)ccc1O[C@H]1CCN(C(=O)CCO)C[C@H]1F [Example 139, 2-(((3R,4S)-3-fluoro-1-(3-hydroxypropanoyl)piperidin-4-yl)oxy)-5-(4-((4-(4-(oxetan-3-yl)piperazin-1-yl)phenyl)amino)-1,3,5-triazin-2-yl)benzonitrile] | 4 nM | 408 nM | 7 nM |
| N#Cc1cc(-c2ncnc(Nc3ccc(N4CCN(C5COC5)CC4)cc3)n2)ccc1O[C@H]1CCN(C(=O)C2(O)CC2)C[C@H]1F [Example 140, 2-(((3R,4S)-3-fluoro-1-(1-hydroxycyclopropanecarbonyl)piperidin-4-yl)oxy)-5-(4-((4-(4-(oxetan-3-yl)piperazin-1-yl)phenyl)amino)-1,3,5-triazin-2-yl)benzonitrile] | 6 nM | 341 nM | 10 nM |
| N#Cc1cc(-c2ncnc(Nc3ccc(N4CCN(C5COC5)CC4)cc3)n2)ccc1O[C@H]1CCN(C(=O)c2ccc[nH]2)C[C@H]1F [Example 141, 2-(((3R,4S)-3-fluoro-1-(1H-pyrrole-2-carbonyl)piperidin-4-yl)oxy)-5-(4-((4-(4-(oxetan-3-yl)piperazin-1-yl)phenyl)amino)-1,3,5-triazin-2-yl)benzonitrile] | 3 nM | 356 nM | 2 nM |
| N#Cc1cc(-c2ncnc(Nc3ccc(N4CCN(C5COC5)CC4)cc3)n2)ccc1O[C@H]1CCN(C(=O)c2ncc[nH]2)C[C@H]1F [Example 142, 2-(((3R,4S)-3-fluoro-1-(1H-imidazole-2-carbonyl)piperidin-4-yl)oxy)-5-(4-((4-(4-(oxetan-3-yl)piperazin-1-yl)phenyl)amino)-1,3,5-triazin-2-yl)benzonitrile] | 3 nM | 174 nM | 4 nM |
| N#Cc1cc(-c2ncnc(Nc3ccc(N4CCN(C5COC5)CC4)cc3)n2)ccc1O[C@H]1CCN(C(=O)c2cnn[nH]2)C[C@H]1F [Example 143, 2-(((3R,4S)-3-fluoro-1-(1H-1,2,3-triazole-5-carbonyl)piperidin-4-yl)oxy)-5-(4-((4-(4-(oxetan-3-yl)piperazin-1-yl)phenyl)amino)-1,3,5-triazin-2-yl)benzonitrile] | 2 nM | 84 nM | 1 nM |
| N#Cc1cc(-c2ncnc(Nc3ccc(N4CCN(C5COC5)CC4)cc3)n2)ccc1O[C@H]1CCN(C(=O)c2nnc[nH]2)C[C@H]1F [Example 144, 2-(((3R,4S)-3-fluoro-1-(4H-1,2,4-triazole-3-carbonyl)piperidin-4-yl)oxy)-5-(4-((4-(4-(oxetan-3-yl)piperazin-1-yl)phenyl)amino)-1,3,5-triazin-2-yl)benzonitrile] | 2 nM | 104 nM | 1 nM |
| N#Cc1cc(-c2ncnc(Nc3ccc(N4CCN(C5COC5)CC4)cc3)n2)ccc1O[C@H]1CCN(C(=O)c2ccn[nH]2)C[C@H]1F [Example 145, 2-(((3R,4S)-3-fluoro-1-(1H-pyrazole-5-carbonyl)piperidin-4-yl)oxy)-5-(4-((4-(4-(oxetan-3-yl)piperazin-1-yl)phenyl)amino)-1,3,5-triazin-2-yl)benzonitrile] | 2 nM | 219 nM | 1 nM |
| N#Cc1cc(-c2ncnc(Nc3ccc(N4CCN(C5COC5)CC4)cc3)n2)ccc1O[C@H]1CCN(C(=O)c2cnc[nH]2)C[C@H]1F [Example 146, 2-(((3R,4S)-3-fluoro-1-(1H-imidazole-5-carbonyl)piperidin-4-yl)oxy)-5-(4-((4-(4-(oxetan-3-yl)piperazin-1-yl)phenyl)amino)-1,3,5-triazin-2-yl)benzonitrile] | 3 nM | 156 nM | 1 nM |
| Cn1cc(C(=O)N2CC[C@H](Oc3ccc(-c4ncnc(Nc5ccc(N6CCN(C7COC7)CC6)cc5)n4)cc3C#N)[C@H](F)C2)nn1 [Example 147, 2-(((3R,4S)-3-fluoro-1-(1-methyl-1H-1,2,3-triazole-4-carbonyl)piperidin-4-yl)oxy)-5-(4-((4-(4-(oxetan-3-yl)piperazin-1-yl)phenyl)amino)-1,3,5-triazin-2-yl)benzonitrile] | 3 nM | 184 nM | 1 nM |
| C[C@H](O)C(=O)N1CCC(Oc2ccc(-c3ncnc(Nc4ccc(N5CCN(C6COC6)CC5)cc4)n3)cc2C#N)C(F)(F)C1 (stereo partly drawn) [Example 154, 2-((3,3-difluoro-1-((S)-2-hydroxypropanoyl)piperidin-4-yl)oxy)-5-(4-((4-(4-(oxetan-3-yl)piperazin-1-yl)phenyl)amino)-1,3,5-triazin-2-yl)benzonitrile] | 1 nM | 168 nM | 3 nM |
| C[C@@H](O)C(=O)N1CCC(Oc2ccc(-c3ncnc(Nc4ccc(N5CCN(C6COC6)CC5)cc4)n3)cc2C#N)C(F)(F)C1 (stereo partly drawn) [Example 157, 2-((3,3-difluoro-1-((R)-2-hydroxypropanoyl)piperidin-4-yl)oxy)-5-(4-((4-(4-(oxetan-3-yl)piperazin-1-yl)phenyl)amino)-1,3,5-triazin-2-yl)benzonitrile] | 3 nM | 188 nM | 14 nM |
| N#Cc1cc(-c2ncnc(Nc3ccc(N4CCN(C5COC5)CC4)cc3)n2)ccc1O[C@H]1CCN(C(=O)CCO)CC1(F)F [Example 161, (S)-2-((3,3-difluoro-1-(3-hydroxypropanoyl)piperidin-4-yl)oxy)-5-(4-((4-(4-(oxetan-3-yl)piperazin-1-yl)phenyl)amino)-1,3,5-triazin-2-yl)benzonitrile] | 2 nM | 173 nM | 2 nM |
| N#Cc1cc(-c2ncnc(Nc3ccc(N4CCN(C5COC5)CC4)cc3)n2)ccc1OC1CCN(C(=O)c2ccc[nH]2)CC1(F)F (stereo not drawn) [Example 162, 2-((3,3-difluoro-1-(1H-pyrrole-2-carbonyl)piperidin-4-yl)oxy)-5-(4-((4-(4-(oxetan-3-yl)piperazin-1-yl)phenyl)amino)-1,3,5-triazin-2-yl)benzonitrile] | 5 nM | 583 nM | 4 nM |
| N#Cc1cc(-c2ncnc(Nc3ccc(N4CCN(C5COC5)CC4)cc3)n2)ccc1O[C@H]1CCN(C(=O)c2ccn[nH]2)CC1(F)F [Example 164, (S)-2-((3,3-difluoro-1-(1H-pyrazole-5-carbonyl)piperidin-4-yl)oxy)-5-(4-((4-(4-(oxetan-3-yl)piperazin-1-yl)phenyl)amino)-1,3,5-triazin-2-yl)benzonitrile] | 3 nM | 155 nM | 1 nM |
| N#Cc1cc(-c2ncnc(Nc3ccc(N4CCN(C5COC5)CC4)cc3)n2)ccc1O[C@H]1CCN(C(=O)c2cnc[nH]2)CC1(F)F [Example 167, (S)-2-((3,3-difluoro-1-(1H-imidazole-5-carbonyl)piperidin-4-yl)oxy)-5-(4-((4-(4-(oxetan-3-yl)piperazin-1-yl)phenyl)amino)-1,3,5-triazin-2-yl)benzonitrile] | 3 nM | 104 nM | 1 nM |
| C[C@@H]1C[C@@H](Oc2ccc(-c3ncnc(Nc4ccc(N5CCN(C6COC6)CC5)cc4)n3)cc2C#N)CCN1C(=O)CO [Example 168, 2-(((2R,4S)-1-(2-hydroxyacetyl)-2-methylpiperidin-4-yl)oxy)-5-(4-((4-(4-(oxetan-3-yl)piperazin-1-yl)phenyl)amino)-1,3,5-triazin-2-yl)benzonitrile] | 15 nM | 877 nM | 61 nM |
| C[C@H]1C[C@@H](Oc2ccc(-c3ncnc(Nc4ccc(N5CCN(C6COC6)CC5)cc4)n3)cc2C#N)CCN1C(=O)CO [Example 169, 2-(((2S,4S)-1-(2-hydroxyacetyl)-2-methylpiperidin-4-yl)oxy)-5-(4-((4-(4-(oxetan-3-yl)piperazin-1-yl)phenyl)amino)-1,3,5-triazin-2-yl)benzonitrile] | 2 nM | 230 nM | 5 nM |
| CC1CN(C(=O)CO)CCC1Oc1ccc(-c2ncnc(Nc3ccc(N4CCN(C5COC5)CC4)cc3)n2)cc1C#N (stereo not drawn) [Example 170, 2-((1-(2-hydroxyacetyl)-3-methylpiperidin-4-yl)oxy)-5-(4-((4-(4-(oxetan-3-yl)piperazin-1-yl)phenyl)amino)-1,3,5-triazin-2-yl)benzonitrile] | 3 nM | 255 nM | 8 nM |
